Laboratory results taken from patent EP1604976A1 (Advance Holdings Limited, priority 2004, dated 2005).
≈ marks a conversion by molar mass, not a printed value. Values belong to the compound of their own block, whether it stands above or below them.

What was measured:
[1] = stability of product of Formula (I) in aqueous solution / acid medium; assay type: physicochemical
[2] = water solubility of products of Formula (I)
COX-2 = COX-2 (Homo sapiens, UniProt P35354); details: Famaey 1997; Cullen et al. 1998; cited from earlier work
Sequence of COX-2 (P35354 18-604): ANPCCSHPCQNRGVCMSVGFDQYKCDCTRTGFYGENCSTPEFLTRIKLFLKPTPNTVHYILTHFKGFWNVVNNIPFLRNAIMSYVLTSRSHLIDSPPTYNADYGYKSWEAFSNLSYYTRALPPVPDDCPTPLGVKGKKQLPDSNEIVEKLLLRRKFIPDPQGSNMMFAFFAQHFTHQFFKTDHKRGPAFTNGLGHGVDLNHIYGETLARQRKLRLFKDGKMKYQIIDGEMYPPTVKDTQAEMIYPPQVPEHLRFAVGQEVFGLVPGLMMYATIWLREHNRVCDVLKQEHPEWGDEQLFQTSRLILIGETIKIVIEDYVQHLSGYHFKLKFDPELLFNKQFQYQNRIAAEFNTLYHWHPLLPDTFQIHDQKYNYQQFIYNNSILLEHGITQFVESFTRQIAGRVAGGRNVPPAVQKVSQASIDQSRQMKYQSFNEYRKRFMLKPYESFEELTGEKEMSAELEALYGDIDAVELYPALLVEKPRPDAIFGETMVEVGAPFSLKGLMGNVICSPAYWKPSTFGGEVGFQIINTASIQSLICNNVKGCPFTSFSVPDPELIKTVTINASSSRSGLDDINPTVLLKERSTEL

- stability of the aqueous solution ([1]; approximately 3.5 wt.% aqueous solution, room temperature, seventh day): still stable on the seventh day
- solubility [2]: ~35 mg/mL (≈ 90.1 mM)
SMILES: CS(=O)(=O)N(c1ccc([N+](=O)[O-])cc1Oc1ccccc1)S(=O)(=O)O [Product I in which X is Na]
- effect of acidification of the solution ([1]; acidification to about pH 2 with HCl): decomposition of the product and precipitation of the theoretical quantity of nimesulide

- stability of the acid form ([1]; especially in an acid medium): rather unstable
SMILES: CS(=O)(=O)N(c1ccc([N+](=O)[O-])cc1Oc1ccccc1)S(=O)(=O)O [acid form (X = H)]

SMILES: CS(=O)(=O)Nc1ccc([N+](=O)[O-])cc1Oc1ccccc1 [nimesulide]
- COX-2 versus COX-1 inhibition preference (COX-2): inhibit preferentially COX-2 more than COX-1
